Assay results reported in patent publication US10526309B2, “Pan-TAM inhibitors and Mer/Axl dual inhibitors” (The University of North Carolina at Chapel Hill, priority 2015, dated 2020).
Like-named read-outs stand apart in the source and are kept apart here.

Tests used:
Format in all cases: biochemical
[1] = target: T1, Axl (Homo sapiens, UniProt P30530); assay: Axl kinase inhibition IC50
T1 sequence (P30530 26-894): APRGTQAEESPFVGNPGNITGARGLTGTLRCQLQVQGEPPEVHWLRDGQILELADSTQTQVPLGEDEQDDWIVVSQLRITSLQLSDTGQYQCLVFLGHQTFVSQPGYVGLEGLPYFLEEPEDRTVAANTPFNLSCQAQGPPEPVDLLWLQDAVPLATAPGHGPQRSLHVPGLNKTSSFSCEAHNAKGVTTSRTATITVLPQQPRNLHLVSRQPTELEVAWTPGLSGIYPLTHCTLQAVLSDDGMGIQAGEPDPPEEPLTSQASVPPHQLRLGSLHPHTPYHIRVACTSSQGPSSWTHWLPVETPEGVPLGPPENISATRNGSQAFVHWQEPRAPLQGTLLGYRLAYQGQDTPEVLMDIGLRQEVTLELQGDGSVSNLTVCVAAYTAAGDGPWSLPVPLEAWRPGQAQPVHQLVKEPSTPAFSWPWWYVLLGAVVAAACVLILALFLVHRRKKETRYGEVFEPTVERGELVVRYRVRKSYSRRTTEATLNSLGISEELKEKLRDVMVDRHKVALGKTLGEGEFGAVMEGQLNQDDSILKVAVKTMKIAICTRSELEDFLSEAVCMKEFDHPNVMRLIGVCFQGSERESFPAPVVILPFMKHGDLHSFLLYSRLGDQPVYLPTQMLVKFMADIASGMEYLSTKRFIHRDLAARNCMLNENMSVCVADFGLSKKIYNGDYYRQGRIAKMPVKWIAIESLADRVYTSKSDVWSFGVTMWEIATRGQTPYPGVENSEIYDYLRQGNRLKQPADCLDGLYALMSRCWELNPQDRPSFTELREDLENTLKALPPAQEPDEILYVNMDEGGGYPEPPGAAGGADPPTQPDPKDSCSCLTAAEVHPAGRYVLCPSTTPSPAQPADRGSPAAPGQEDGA

[2] = target: T2, Tyro3 (Homo sapiens, UniProt Q06418); assay: Tyro3 kinase inhibition IC50
T2 sequence (Q06418 41-890): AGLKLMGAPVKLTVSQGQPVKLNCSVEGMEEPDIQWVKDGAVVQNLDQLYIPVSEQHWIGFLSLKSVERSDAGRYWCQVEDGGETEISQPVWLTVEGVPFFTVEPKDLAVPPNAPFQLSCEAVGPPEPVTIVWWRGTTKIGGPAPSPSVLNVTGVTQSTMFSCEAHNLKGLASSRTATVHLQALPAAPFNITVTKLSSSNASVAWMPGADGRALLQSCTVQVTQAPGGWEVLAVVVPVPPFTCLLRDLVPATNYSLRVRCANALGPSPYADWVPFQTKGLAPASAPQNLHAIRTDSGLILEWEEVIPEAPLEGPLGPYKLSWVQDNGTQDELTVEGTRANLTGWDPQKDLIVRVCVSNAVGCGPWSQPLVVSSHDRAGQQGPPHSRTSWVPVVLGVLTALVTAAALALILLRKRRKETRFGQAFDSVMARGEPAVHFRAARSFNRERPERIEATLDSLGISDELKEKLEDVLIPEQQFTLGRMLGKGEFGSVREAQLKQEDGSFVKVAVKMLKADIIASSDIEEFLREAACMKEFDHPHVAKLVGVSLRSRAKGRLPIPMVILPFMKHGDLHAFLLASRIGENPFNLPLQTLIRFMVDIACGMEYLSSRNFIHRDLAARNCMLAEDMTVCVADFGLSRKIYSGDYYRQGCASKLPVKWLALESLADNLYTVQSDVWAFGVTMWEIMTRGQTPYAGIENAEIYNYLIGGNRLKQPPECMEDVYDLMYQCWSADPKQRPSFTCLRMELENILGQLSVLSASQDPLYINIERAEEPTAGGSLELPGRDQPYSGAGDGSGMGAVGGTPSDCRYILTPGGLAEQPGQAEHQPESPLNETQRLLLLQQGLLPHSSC

[3] = target: T3, Mer (Homo sapiens, UniProt Q12866); assay: Mer kinase inhibition IC50; conditions: read-out: Mer IC50
T3 sequence (Q12866 21-999): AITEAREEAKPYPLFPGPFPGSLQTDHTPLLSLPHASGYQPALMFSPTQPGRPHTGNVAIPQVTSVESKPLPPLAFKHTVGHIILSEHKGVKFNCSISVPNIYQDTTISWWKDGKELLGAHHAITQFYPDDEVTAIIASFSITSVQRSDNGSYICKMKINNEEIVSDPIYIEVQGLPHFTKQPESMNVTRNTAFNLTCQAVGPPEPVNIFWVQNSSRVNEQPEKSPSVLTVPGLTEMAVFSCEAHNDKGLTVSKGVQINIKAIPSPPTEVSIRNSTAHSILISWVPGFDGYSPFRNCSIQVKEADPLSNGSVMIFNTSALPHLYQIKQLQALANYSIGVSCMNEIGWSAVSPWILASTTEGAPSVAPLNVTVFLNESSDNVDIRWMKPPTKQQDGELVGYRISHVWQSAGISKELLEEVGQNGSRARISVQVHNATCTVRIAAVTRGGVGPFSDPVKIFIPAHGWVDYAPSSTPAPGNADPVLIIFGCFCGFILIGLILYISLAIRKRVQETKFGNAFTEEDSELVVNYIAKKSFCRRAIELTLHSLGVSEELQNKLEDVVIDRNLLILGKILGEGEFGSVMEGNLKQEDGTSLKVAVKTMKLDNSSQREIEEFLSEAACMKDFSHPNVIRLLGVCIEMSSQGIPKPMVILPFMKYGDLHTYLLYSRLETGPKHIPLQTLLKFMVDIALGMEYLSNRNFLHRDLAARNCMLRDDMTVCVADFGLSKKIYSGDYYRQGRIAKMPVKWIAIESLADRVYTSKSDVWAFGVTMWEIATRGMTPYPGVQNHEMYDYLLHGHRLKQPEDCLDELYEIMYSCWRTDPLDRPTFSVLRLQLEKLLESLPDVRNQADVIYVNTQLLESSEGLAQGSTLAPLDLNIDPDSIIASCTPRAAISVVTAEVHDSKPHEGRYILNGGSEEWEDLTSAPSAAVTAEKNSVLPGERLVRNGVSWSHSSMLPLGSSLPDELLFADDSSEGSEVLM

Compound	IC50 ([1]; Table 3) [nM]	IC50 ([3]; Table 3) [nM]	IC50 ([2]; Table 3, read-out: Tyro3 IC50) [nM]	other results
O[C@H]1CC[C@H](Nc2nc(Nc3ccccc3)ncc2-c2ccccn2)CC1 [UNC3029A]	–	–	–	IC50 ([1]; Table 1): 100 to 1000 nM; IC50 ([2]; Table 1, read-out: Tyro3 IC50): < 10 nM
CN1CCN(Cc2ccc(-c3cnc(Nc4ccc(C#Cc5cc(C6OCCO6)ccn5)cc4)nc3N[C@H]3CC[C@H](O)CC3)cc2)CC1 [UNC3437A]	100 to 1000	10 to 100	–	–
NS(=O)(=O)c1ccc(-c2cnc(Nc3ccc(C#Cc4cc(C(=O)NC5CC5)ccn4)cc3)nc2N[C@H]2CC[C@H](O)CC2)nc1 [UNC3457A]	10 to 100	10 to 100	100 to 1000	–
CN(C)C(=O)c1ccnc(C#Cc2ccc(Nc3ncc(-c4ccccn4)c(N[C@H]4CC[C@H](O)CC4)n3)cc2)c1 [UNC3459A]	1000 to 30000	10 to 100	< 10	–
O=S(=O)(c1ccc(-c2cnc(Nc3ccc(C#Cc4cc(C5OCCO5)ccn4)cc3)nc2N[C@H]2CC[C@H](O)CC2)nc1)N1CCOCC1 [UNC3619A]	100 to 1000	< 10	< 10	–
CN1CCN(Cc2ccc(-c3cnc(Nc4ccc(C#Cc5cc(NC(=O)c6ccccc6)ccn5)cc4)nc3N[C@H]3CC[C@H](O)CC3)cc2)CC1 [UNC3868A]	10 to 100	< 10	10 to 100	–
CN1CCN(Cc2ccc(-c3cnc(Nc4ccc(C#Cc5cc(N)ccn5)cc4)nc3N[C@H]3CC[C@H](O)CC3)cc2)CC1 [UNC3869A]	1000 to 30000	10 to 100	100 to 1000	–
CN1CCN(Cc2ccc(-c3cnc(Nc4ccc(C#Cc5cc(NC(=O)C6CCC6)ccn5)cc4)nc3N[C@H]3CC[C@H](O)CC3)cc2)CC1 [UNC3871A]	10 to 100	< 10	< 10	–
CN1CCN(Cc2ccc(-c3cnc(Nc4ccc(C#Cc5cc(NC(=O)C6CCCCC6)ccn5)cc4)nc3N[C@H]3CC[C@H](O)CC3)cc2)CC1 [UNC3873A]	10 to 100	< 10	10 to 100	–
CC(=O)Nc1ccnc(C#Cc2ccc(Nc3ncc(-c4ccc(CN5CCN(C)CC5)cc4)c(N[C@H]4CC[C@H](O)CC4)n3)cc2)c1 [UNC3874A]	100 to 1000	10 to 100	10 to 100	–
CC(C)C(=O)Nc1ccnc(C#Cc2ccc(Nc3ncc(-c4ccc(CN5CCN(C)CC5)cc4)c(N[C@H]4CC[C@H](O)CC4)n3)c(F)c2)c1 [UNC4040A]	100 to 1000	< 10	< 10	–
CC(C)C(=O)Nc1ccnc(C#Cc2ccc(Nc3ncc(-c4ccccc4)c(N[C@H]4CC[C@H](O)CC4)n3)cc2)c1 [UNC4041A]	100 to 1000	10 to 100	10 to 100	–
CC(C)C(=O)Nc1ccnc(C#Cc2ccc(Nc3ncc(-c4ccncc4)c(N[C@H]4CC[C@H](O)CC4)n3)cc2)c1 [UNC4043A]	10 to 100	< 10	< 10	–
Cc1cc(C#Cc2cc(NC(=O)C(C)C)ccn2)ccc1Nc1ncc(-c2ccc(CN3CCN(C)CC3)cc2)c(N[C@H]2CC[C@H](O)CC2)n1 [UNC4048A]	100 to 1000	10 to 100	10 to 100	–
O[C@H]1CC[C@H](Nc2nc(Nc3ccc(C#Cc4cc(-c5ncc[nH]5)ccn4)cc3)ncc2-c2ccccn2)CC1 [UNC4357A]	–	–	–	IC50 ([1]; Table 4): 1000 to 30000 nM; IC50 ([2]; Table 4, read-out: Tryo3 IC50): 100 to 1000 nM; IC50 ([3]; Table 4): 100 to 1000 nM
O[C@H]1CC[C@H](Nc2nc(Nc3ccc(C#Cc4cc(-c5ccn[nH]5)ccn4)cc3)ncc2-c2ccccn2)CC1 [UNC4360A]	–	–	–	IC50 ([1]; Table 4): 1000 to 30000 nM; IC50 ([2]; Table 4, read-out: Tryo3 IC50): 100 to 1000 nM; IC50 ([3]; Table 4): 100 to 1000 nM
O[C@H]1CC[C@H](Nc2nc(Nc3ccc(C#Cc4cc(-c5cccnc5)ccn4)cc3)ncc2-c2ccccn2)CC1 [UNC4361A]	–	–	–	IC50 ([1]; Table 4): 100 to 1000 nM; IC50 ([2]; Table 4, read-out: Tryo3 IC50): 100 to 1000 nM; IC50 ([3]; Table 4): 100 to 1000 nM
O[C@H]1CC[C@H](Nc2nc(Nc3ccc(C#Cc4cc(-c5cncnc5)ccn4)cc3)ncc2-c2ccccn2)CC1 [UNC4362A]	–	–	–	IC50 ([1]; Table 4): 100 to 1000 nM; IC50 ([2]; Table 4, read-out: Tryo3 IC50): 100 to 1000 nM; IC50 ([3]; Table 4): 10 to 100 nM
CN1CCN(Cc2ccc(-c3ccc(Nc4ncc(-c5ccccn5)c(N[C@H]5CC[C@H](O)CC5)n4)cc3)cc2)CC1 [UNC4437A]	–	–	–	IC50 ([3]; Table 2): 100 to 1000 nM

The next lines start with results.

IC50 ([1]; Table 3) [nM]	IC50 ([3]; Table 3) [nM]	IC50 ([2]; Table 3, read-out: Tyro3 IC50) [nM]	Compound	other results
< 10	< 10	< 10	CCNC(=O)c1ccnc(C#Cc2ccc(Nc3ncc(-c4ccccn4)c(N[C@H]4CC[C@H](O)CC4)n3)cc2)c1 [UNC3458A]	–
< 10	< 10	< 10	CN1CCN(Cc2ccc(-c3cnc(Nc4ccc(C#Cc5cc(NC(=O)C6CC6)ccn5)cc4)nc3N[C@H]3CC[C@H](O)CC3)cc2)CC1 [UNC3622A]	–
< 10	< 10	< 10	CC(C)C(=O)Nc1ccnc(C#Cc2ccc(Nc3ncc(-c4ccc(CN5CCN(C)CC5)cc4)c(N[C@H]4CC[C@H](O)CC4)n3)cc2)c1 [UNC3870A]	–
< 10	< 10	< 10	CN1CCN(Cc2ccc(-c3cnc(Nc4ccc(C#Cc5cc(NC(=O)C6CCCC6)ccn5)cc4)nc3N[C@H]3CC[C@H](O)CC3)cc2)CC1 [UNC3872A]	–
< 10	< 10	< 10	CC(C)C(=O)Nc1ccnc(C#Cc2ccc(Nc3ncc(-c4ccccn4)c(N[C@H]4CC[C@H](O)CC4)n3)cc2)c1 [UNC4042A]	–
< 10	< 10	< 10	Cc1cc(Nc2ncc(-c3ccc(CN4CCN(C)CC4)cc3)c(N[C@H]3CC[C@H](O)CC3)n2)ccc1C#Cc1cc(NC(=O)C(C)C)ccn1 [UNC4044A]	–
< 10	< 10	< 10	CC(C)C(=O)Nc1ccnc(C#Cc2ccc(Nc3ncc(-c4ccc(CN5CCN(C)CC5)cc4)c(N[C@H]4CC[C@H](O)CC4)n3)cc2F)c1 [UNC4045A]	–
< 10	10 to 100	10 to 100	CC(C)C(=O)Nc1ccnc(C#Cc2ccc(Nc3ncc(-c4ccc(CN5CCN(C)CC5)cc4)c(N[C@H]4CC[C@H](O)CC4)n3)c(Cl)c2)c1 [UNC4046A]	–
< 10	< 10	< 10	CC(C)C(=O)Nc1ccnc(C#Cc2ccc(Nc3ncc(-c4ccc(CN5CCN(C)CC5)cc4)c(N[C@H]4CC[C@H](O)CC4)n3)cc2Cl)c1 [UNC4047A]	–
